# According to ChEMBL document CHEMBL1135559, “Vacuolar-type H(+)-ATPase inhibitory activity of synthetic analogues of the concanamycins: is the hydrogen bond network involving the lactone carbonyl, the hemiacetal hydroxy group, and the C-19 hydroxy group essential for the biological activity of the concanamycins?” (Bioorg Med Chem Lett, 2002):
# What was measured:
# Type in all cases: functional, cell-based
# Conditions in all cases: Homo sapiens
# A-431 [1] = assay: Cell viability in A431 cells unstimulated with EGF was tested when incubated with concentration up to 10 uM after 48 h; Did not affect the viability
# A-431 [2] = assay: Cell viability in A431 cells when stimulated with EGF was tested when incubated with concentration up to 10 uM after 48 h; Did not affect the viability
# A-431 [3] = assay: Cell viability in A431 cells unstimulated with EGF was tested when incubated with concentration in the range of 1-10 uM after 48 h; Did not affect the viability
# A-431 [4] = assay: Cell viability in A431 cells when stimulated with EGF was tested when incubated with concentration in the range of 1-10 uM of the compound after 48 h; Cell death
# A-431 [5] = assay: Cell viability in A431 cells when stimulated with EGF was tested when incubated with concentration 2 uM after 48 h; Cell death
# A-431 [6] = assay: Cell viability in A431 cells unstimulated with EGF was tested when incubated with concentration at 2 uM after 48 h; Did not affect the viability
# A-431 [7] = assay: Cell viability in A431 cells when stimulated with EGF was tested when incubated with concentration 0.01 uM after 48 h; Cell death
smiles,measurement,setting,value
CC[C@H]1[C@@H](O)[C@H](C)C/C(C)=C/C=C/[C@H](OC)[C@@H]([C@@H](C)COC(c2ccccc2)(c2ccccc2)c2ccc(OC)cc2)OC(=O)/C(OC)=C/C(C)=C/[C@@H](C)[C@H]1O,Activity,A-431 [1],No effect
same,Activity,A-431 [2],No effect
CC[C@H]1[C@@H](O)[C@H](C)C/C(C)=C/C=C/[C@H](OC)[C@@H]([C@@H](C)CO)OC(=O)/C(OC)=C/C(C)=C/[C@@H](C)[C@H]1O,Activity,A-431 [3],No effect
same,Activity,A-431 [4],No effect
C/C=C/[C@H]1O[C@@](O)([C@@H](C)[C@H](O)[C@H](C)[C@H]2OC(=O)/C(OC)=C/C(C)=C/[C@@H](C)[C@@H](O)[C@@H](CC)[C@@H](O)[C@H](C)C/C(C)=C/C=C/[C@@H]2OC)C[C@@H](O)[C@@H]1C,Activity,A-431 [5],No effect
same,Activity,A-431 [6],No effect
CC[C@@H]([C@@H](O)[C@H](C)C/C(C)=C/C=C/[C@H](OC)[C@H](O)[C@@H](C)COC(c1ccccc1)(c1ccccc1)c1ccc(OC)cc1)[C@H](O)[C@H](C)/C=C(C)/C=C(\OC)C(=O)OC,Activity,A-431 [7],No effect
same,Activity,A-431 [1],No effect
